From patent US20130039956A1, “USE OF NITROCARBOXYLIC ACIDS FOR THE TREATMENT, DIAGNOSIS AND PROPHYLAXIS OF AGGRESSIVE HEALING PATTERNS” (priority 2010, published 2013)

Columns and labels:
fibroblasts [1] = assay: Mechanical alteration of fibroblasts (cyclic stretching of coated polypropylene meshes); type: cell-based; conditions: cyclic stretching, day 7, day 21, 8 weeks, compared with native FA
Description: In order to simulate the effects of chronic shear forces on a healing wound, an in vitro model was established. A flat balloon was placed on the bottom of a Petri dish. A silicone sheet was placed above and sealed with the side of the Petri dish. Then a 3 mm agar layer was casted on top of the sheet. Commercially available polypropylene meshes for hernia repair (microporous mesh, a low-weight and macroporous mesh with absorbable polyglactin filaments, and a heavy-weight and microporous mesh) were placed on the agar plates and fixed at 4 points at the side of the Petri dish. This setting enabled stretching of the meshes by filling the balloons with air, which was performed at 10-second intervals using an automated pumping device. The model can be used to evaluate the effect of three-dimensional (3D) shear forces on cell growth during cell cultivation. Preincubated suspensions of fibroblasts (1.5×10(5) cells) in a culture medium (10% FCS) were added to the culture dishes and allowed to grow for 48 hours. Cyclic stretching was started at day 3. Histological analysis was performed from the central portions of the meshes at day 7, at day 21, and after 8 weeks. The scaffolds were detached from the culture plate and carefully rinsed. Then, they were cut into pieces, casted, and further processed for standard histology and immunohistology. Care was taken to achieve a cutting plane that was vertical to the surface plane of the meshes. Histological analysis evaluated the cellularity, the content of extra cellular matrix (ECM), and the magnitude of protein synthesis. Meshes were dip-coated with native and nitro fatty acids or left blank in the same manner as in example 1. The uncoated meshes served as controls.

human dermal fibroblasts = assay: Extra cellular matrix production (collagen-1) in response to TGF-β2 in dermal fibroblasts; type: cell-based; conditions: 10 and 50 μmol, TGF-β2 25 ng/ml, 48 hours; compared with native FA
Description: In order to determine whether PPRA gamma stimulation due to nitrated fatty acids plays a role in the inventive inhibition of an aggressive healing pattern to an irritating stimulus, human dermal fibroblasts were investigated. A dominant-negative PPAR gamma mutant (L466A) cell clone was generated by polymerase chain reaction-based site-directed mutagenesis. Presence of PPAR gamma or absence was investigated using a PPAR gamma antibody reaction which was determined using an enhanced chemiluminescence detection system. Furthermore, one cell series was incubated with a selective irreversible PPAR gamma ligand (GW9662, 1 μmol), which effectively blocks PPAR gamma receptors.
Sequential cultivation of human dermal fibroblasts was performed in EMEM containing 5 mM glucose supplemented with 10% FCS under standard cultivation conditions. Cells were allowed to grow to confluence in a 96-well plate. Wild-type fibroblasts and PPAR gamma deficient fibroblasts were investigated by a set-up of 2×10 sample sets comprising: (1) blank control; (2) stimulation control; (3) preincubation with the PPAR gamma antagonist GW9662 (Cayman Chemical); (4) preincubation with the PPAR agonist troglitazone (25 μmol). In 2×4 sample sets, native fatty acids were added to the medium to achieve a final concentration of 10 and 50 μmol, respectively; in another 2×4 sets the nitrated fatty acids were added to the medium in the same concentration, while 2×2 sets served as controls. In 10 of the sets, TGF-β2 was added to the culture medium at a concentration of 25 ng/ml. Cultivation was continued for 48 hours and then processed in order to analyze collagen-1 as measured by enhanced chemiluminescence detection of immuncomplexes.

fibroblasts [2] = assay: Biofouling and cell adherence at prosthetic materials (dip-coated polymer films); type: cell-based; conditions: compared with native FA (control)
Description: Polymer scaffolds (polyurethane, polyvinylchloride, polylactate) which are used as implant materials were investigated. Solid and porous (pore sizes ranging from 50 to 150 micrometer) films of pure polymer scaffolds were cut into pieces (5×5 mm). After cleaning with NaOH and ethanol, they were dip-coated with native and nitrocarboxylic acids. Dip-coated pieces were suspended in a tube filled with argon and heated at 60° C. for 24 hours in the dark. Film pieces with and without coating were placed in a borosilicate glass tube that allowed fixation of two margins of the film pieces at the wall of the glass tube, thus, enabling a upright standing position in the center of the tube. Tubes were filled with various solutions for 12 hours. Solutions consisted of the following: 0.9% saline; 2% bovine albumin; 2% bovine albumin with addition of either fibronectin or laminin; and bovine serum. At the end of the exposure time, tubes were gently washed twice with 0.9% saline solution. One set of films was analyzed for protein absorption using a specific antibody staining method. An identically prepared set of films was further processed for cell cultures. A suspension containing preincubated fibroblasts in 1% FCS was added to the film-containing tubes. The tubes were tilted and adjusted in such a position so that the films were in a vertical orientation within the suspension. […] Tubes had two openings at the upper half (of the tilt tubes) that allowed free exchange of the atmosphere above the solution with the surrounding atmosphere. Sets were incubated at standard conditions for 24, 48, and 96 hours, respectively. Thereafter, films were carefully removed and rinsed with 0.9% saline solution. The cellularity and the shape of the cells on both sides of the films were evaluated after staining (Gimsa) using a reflected light microscope.

adult rats = assay: Fibrogenesis after traumatic and thermal tissue damage in dermal wound healing in vivo; parameters: species or system rat; conditions: 100 micromol ethanolic solution on wound margins, 8 weeks, compared with native FA
Description: In order to determine the effects of nitrated fatty acids on fibrogenesis in response to traumatic and thermal tissue damage, an in vivo rat model was investigated. Paravertebral scalpel incision (two on each side) of approximately 1 cm in length and a depth of 1 mm were made in 12 anesthetized adult rats (150-200 g) of either sex after disinfection. Bleeding was stopped by manual compression. The entire length of the wound margins of one incision at each side were additionally cauterized using a 3-mm ball electrode connected to a DRE ASG-120 electrosurgical generator. Wound margins of one side were then covered with a sterile ethanolic 0.9% saline solution, or with a sterile ethanolic solution of the fatty acids (100 micromol), or with a sterile ethanolic solution of the nitrated fatty acids (100 micromol) using a sterile brush. A 1×10 mm cotton string that was bathed in the ethanolic solution containing 0.9% saline, native fatty acid or nitrated fatty acids was placed upon the incision site that had been closed by manual adaptation. The adaptation result and the cotton strings were fixed by an adhesive film. The animals were housed and fed according to institutional standards. The wound films were carefully removed after 2 weeks. Animals were euthanized after 8 weeks. The skin wounds were harvested, including the epidermis, dermis, and subcutaneous loose tissue with the surrounding normal tissue. The removed tissues were fixed in formalin and then embedded in paraffin. The cutting plane was vertical to the longitudinal axis of the former incisions. Slices (4-6 μm) were stained with H&E and Masson trichrome staining to evaluate the amount and density of collagen.
Note: key: 0: not superior to native FA (control); +: Superior to native FA; ++: superior to both; +++: outstanding effect.

| Compound | Relative effect on fibroblasts under mechanical alteration (fibroblasts [1]) | Relative effect on collagen-1 production in response to TGF-β2 (human dermal fibroblasts) | Relative differences: effect on biofouling and cell adherence (fibroblasts [2]) | Relative effect on fibrogenesis (scar formation) in dermal wound healing (adult rats) |
| --- | --- | --- | --- | --- |
| 5-nitro-eicosatrienoic acid [compound 4] | + | + | + | + |
| 9,10-nitro-cis-oleic acid [compound 10] | ++ | ++ | +++ | ++ |
| 9,10-nitro-trans-oleic acid [compound 15] | + | + | ++ | + |
| CCCCCCCC/C=C(/CCCCCCCC(=O)O)[N+](=O)[O-] [compound 1, 9-nitro cis-oleic acid] | +++ | +++ | ++ | ++ |
| CCCCC/C=C\C/C(=C\CCCCCCCC(=O)O)[N+](=O)[O-] [compound 2, 10-nitro-cis-linoleic acid] | +++ | ++ | ++ | +++ |
| CCCCCCCC/C(=C/CCCCCCCC(=O)O)[N+](=O)[O-] [compound 3, 10-nitro-cis-oleic acid] | ++ | ++ | ++ | ++ |
| CCCCC/C=C(/C/C=C\C/C=C\C/C=C\C/C=C\CCC(=O)O)[N+](=O)[O-] [compound 5, 16-nitro-all-cis-4,7,10,13,16-docosapentaenoic acid] | ++ | + | ++ | 0 |
| CC/C=C\C/C=C\C/C=C(/CCCCCCCC(=O)O)[N+](=O)[O-] [compound 6, 9-nitro-all-cis-9-12,15-octadecatrienoic acid] | ++ | ++ | ++ | ++ |
| CC/C=C\C/C=C\C/C(=C/C/C=C\C/C=C\CCCCCC(=O)O)[N+](=O)[O-] [compound 7, 14-nitro-all-cis-7,10,13,16,19-docosapentaenoic acid] | + | + | ++ | 0 |
| CCCCCCCC/C=C(/CCCCCCCCCCCCCC(=O)O)[N+](=O)[O-] [compound 8, 15-nitro-cis-15-tetracosenoic acid] | + | 0 | + | + |
| CCCCCCCC/C=C(\CCCCCCCC(=O)O)[N+](=O)[O-] [compound 9, 9-nitro-trans-oleic acid] | + | + | + | + |
| CCCCCCCCCCC/C=C(/CCCCC(=O)O)[N+](=O)[O-] [compound 21, 6-nitro-cis-6-octadecenoic acid] | + | ++ | – | ++ |
